# According to US6472430B2, “Amino thioxomethyl amino oxyacetic acid derivatives” (priority 2000, dated 2002):
# Assays:
# Male Sprague-Dawley rats = experiment: Determination of serum HDL cholesterol in cholesterol/cholic acid-fed rats; assay type: in vivo, rat; conditions: dose of 100 mg/kg mixed in diet, eight days, six rats per group, diet with 0.25% cholic acid and 1.0% cholesterol, serum HDL cholesterol by FPLC; for change in vivo at 100 mg/kg: Rattus norvegicus, feed or water, 192 h, read-out: HDL Cholesterol Level Increase (%)
# Experimental: The ability of the compounds of this invention to increase blood serum HDL levels was evaluated by the following standard experimental procedure for determination of HDL cholesterol:
# Male Sprague-Dawley rats weighing 200-225 g were housed two per cage and fed Purina Rodent Chow Special Mix 5001-S supplemented with 0.25% cholic acid and 1.0% cholesterol and water ad libitum for 8 days. Each test substance was administered to a group of six rats fed the same diet with the test diet mixed in as 0.005-0.1% of the total diet. Body weight and food consumption were recorded prior to diet administration and at termination. Typical doses of the test substances are 5-100 mg/kg/day.
# At termination, blood was collected from anesthetized rats and the serum was separated by centrifugation. Total serum cholesterol was assayed using the Sigma Diagnostics enzymatic kit for the determination of cholesterol, Procedure No. 352, modified for use with ninety-six well microtiter plates. After reconstitution with water the reagent contained 300 U/l cholesterol oxidase, 100 U/l cholesterol esterase, 1000 U/l horseradish peroxidase, […] p-hydroxybenzenesulfonate in a pH 6.5 buffer. In the reaction cholesterol is oxidized to produce hydrogen peroxide which is used to form a quinoneimine dye. The concentration of dye formed is measured spectrophotometrically by absorbence at 490 nm after incubation at 25° C. for 30 minutes. The concentration of cholesterol was determined for each serum sample relative to a commercial standard from Sigma.
# HDL cholesterol concentrations in serum were determined by separation of lipoprotein classes by fast protein liquid chromatography (FPLC) by a modification of the method of Kieft et al., J. Lipid Res., 32 (1991) 859-866. 25 ul of serum was injected onto Superose 12 and Superose 6 (Pharmacia), in series, with a column buffer of 0.05 M Tris (2-amino-2-hydroxymethyl-1,3-propanediol) and 0.15 M sodium chloride at a flow rate of 0.5 ml/min. The eluted sample was mixed on line with Boehringer-Mannheim cholesterol reagent pumped at 0.2 ml/min. The combined eluents were mixed and incubated on line through a knitted coil (Applied Biosciences) maintained at a temperature of 45° C. The eluent was monitored by measuring absorbance at 490 nm and gave a continuous absorbance signal proportional to the cholesterol concentration. The relative concentration of each lipoprotein class was calculated as the per cent of total absorbency. HDL cholesterol concentration, in serum, was calculated as the per cent of total cholesterol as determined by FPLC multiplied by the total serum cholesterol concentration.
# Test compounds were administered at a dose of 100 mg/kg. Each test substance was administered to a group of six rats. The duration of treatment was eight days.
melting point [°C],Compound,change in vivo at 100 mg/kg (Male Sprague-Dawley rats) [%],HDL Cholesterol Level Increase (%) (Male Sprague-Dawley rats)
83 to 84,"CCOC(=O)CON(C)C(=S)Nc1cc(Cl)ccc1C [Example 1, Ethyl [[[[(5-Chloro-2-methylphenyl)amino]thioxomethyl]methylamino]oxy]acetate]",118,–
104 to 106,"CCOC(=O)CON(C)C(=S)Nc1ccc(Cl)cc1C [Example 2, Ethyl [[[[(4-Chloro-2-methylphenyl)amino]thioxomethyl]methylamino]oxy]acetate]",62,–
69 to 71,"CCOC(=O)CON(C)C(=S)Nc1ccc2c(c1)CCC2 [Example 3, Ethyl [[[[(2,3-dihydro-1H-inden-5-yl)amino]thioxomethyl]methylamino]oxy]acetate]",146,–
–,"CCOC(=O)CON(C)C(=S)Nc1cc(C)ccc1C [Example 5, Ethyl [[[[(2,5-dimethylphenyl)amino]thioxomethyl]methylamino]oxy]acetate]",40,–
–,"CCOC(=O)CON(C)C(=S)NCC(C)C [Example 6, Ethyl [[[[(2-methylpropyl)amino]thioxomethyl]methylamino]oxy]acetate]",17,–
–,"CCOC(=O)CON(C)C(=S)Nc1ccc(Oc2ccccc2)cc1 [Example 7, Ethyl [[[[(4-phenoxyphenyl)amino]thioxomethyl]methylamino]oxy]acetate]",35,–
69 to 71,"CCOC(=O)CON(CC)C(=S)Nc1ccc(Cl)cc1C [Example 8, Ethyl [[[[(4-Chloro-2-methylphenyl)amino]thioxomethyl]ethylamino]oxy]acetate]",90,–
83 to 85,"CCOC(=O)CON(C(=S)Nc1cc(Cl)ccc1C)C(C)C [Example 9, Ethyl [[[[(5-Chloro-2-methylphenyl)amino]thioxomethyl](1-methylethyl)amino]oxy]acetate]",46,–
–,"CCOC(=O)CON(C(=S)Nc1cc(Cl)ccc1C)C(C)CC (stereo not drawn) [Example 10, Ethyl [[[[(5-Chloro-2-methylphenyl)amino]thioxomethyl](1-methylpropyl)amino]oxy]acetate]",39,–
–,Ethyl [[methyl[[(2-(1-methylethyl)phenyl]amino]thioxomethyl]methylamino]oxy]acetate [Example 4],–,104
